Experimental data reported in patent US20230138563A1, “METHODS FOR QUANTIFICATION OF COMPOUNDS IN CULTIVARS OF Cannabis sp” (MEDLEAF BIOTECHNOLOGIES AND GLOBAL RESEARCH AND D[…]., priority 2020, published 2023).

Legend:
U-87 MG glioma cell = experiment: single-cell microfluidic intracellular calcium bioassay (Fluo-4 fluorescence); details: for [Ca^2+]i: single U-87 MG cell, calculated from fluorescence by eq. 1
Method: The current study was designed to investigate the pharmacological potential of CBD on calcium uptake in U87MG glioma cells by a method using a single-cell microfluidic approach.
The glass chip was fabricated through the standard micromachining processes at Canadian Microelectronic Corporation (CMC) by a process that includes standard chip cleaning, thin film deposition, photolithography, photoresist development, hydrofluoric acid wet etching, reservoir forming, and chip bonding, as previously reported (Li et al. 2005). The chip design is shown in FIG. 9, consisting of three reservoirs, three channels and one chamber containing the cell retention structure to isolate the single cell. Reservoir 1 was used for cell introduction and washing, reservoir 2 was used for reagent delivery, and reservoir 3 was a waste reservoir. The channel was 40 μm deep, while the reservoirs were 600 μm deep and 2.5 mm in diameter.
A fluorescent calcium probe, Fluo-4 AM ester (50 μg, special packaging, Molecular Probes, Eugene, Oreg.) was first dissolved in 50 μL of dimethyl sulfoxide (DMSO, 99.9%, Sigma-Aldrich, St. Louis, Mo.) to make a stock solution of 1 μg/μL. Before use, it was freshly diluted in Hanks' balanced salt solution (HBSS, Invitrogen Corp., Grand Island, N.Y.) to make a 5.0 μM working solution. Due to light sensitivity of Fluo-4 AM, it must be stored in the dark at −20° C. Cannabidiol (CBD) was purchased from Cerilliant Corporation (Round Rock, Tex.) as drug enforcement agency-exempt solution, i.e. 1 mg/mL solution in methanol (MeOH). Trypan blue solutions (4%) were purchased from Sigma-Aldrich (St. Louis, Mo.). RPMI 1640 medium solution, trypsin-ethylenediaminetetraacetic acid (Trypsin-EDTA) (0.025%), penicillin-streptomycin and fetal bovine serum (FBS) were obtained from Life Technologies (Grand Island, N.Y.). lonomycin (Calcium salt, Sigma Chemical Co.) was used to saturate the Ca^2+-Fluo-4 fluorescence within the cells. Ionomycin was dissolved in DMSO to make the stock solution which was finally diluted in HBSS containing 1 mM CaCl2 to make working solutions. The glioma cells (U-87 MG) were obtained from ATCC (Manassas, Va.). The cells were maintained in the RPMI medium with 10% fetal bovine serum and 1% penicillin in a 5% CO2 atmosphere at 37° C. and were passaged twice a week.
An optical imaging and fluorescent measurement system was used, as previously described (Li et al., 2009). Briefly, an inverted microscope (TE300, Nikon, Mississauga, ON, Canada) was connected to a video camera (JVC, TK-C3180). A TV set was used for optical observation (FIG. 2). By using a dichroic filter (620 nm), only red light entered the video camera for cell imaging without interfering with the fluorescent measurement. The green fluorescent emission (535 nm) was achieved under the Xenon arc lamp excitation (480 nm) selected by the microphotometer system (PTI) through a detection aperture. The chip was translated back and forth manually so the cellular fluorescence or background signal could be measured.
Before running any experiment, the microfluidic chip was cleaned by soap solution (2 times), rinsed with deionized water (3 to 5 times), and sterilized with 75% ethanol (1 time). After the cleaning step, […] of a cell suspension was introduced into the cell inlet from reservoir 1, the cells flowed from the left to right across the cell retention structure. By adjusting the liquid levels of the right […] (waste) and the left reservoir 1 (cell inlet), a desired U-87 MG cell was slowed down near the entrance of the cell retention structure. As the glioma cell is adherent, it readily becomes stationary to maintain its location in the retention structure. The glioma cell was allowed to settle for about 15 minutes, during which it was attached to the glass chip surface before the fluorescence measurement started.

[1] = system: U87 human glioma cell line; details: cited from earlier work
[2] = system: U373 human glioma cell line; details: cited from earlier work
U87 human glioma cells [3] = details: in vitro, dose-dependently, 0.01 up to 9 μM; cited from earlier work
U87 human glioma cells [4] = details: mouse, in vivo; cited from earlier work
[5] = read-out: Kd (dissociation constant of the dye); cited from earlier work

In the case of `C=C(C)[C@@H]1CCC(C)=C[C@H]1c1c(O)cc(CCCCC)cc1O` [CBD, cannabidiol], the “change of [Ca^2+]i (FIG. 10)” value (U-87 MG glioma cell; 9.5 μM CBD) is reported as “increased slightly”, the “change of [Ca^2+]i (FIG. 10)” value (U-87 MG glioma cell; 19 μM CBD compared to 9.5 μM) is reported as “significantly increased” and the “concentration dependence of intracellular [Ca^2+]i increase” value (U-87 MG glioma cell; CBD 9.5 and 19 μM) is reported as “concentration-dependent manner”. The “cell viability by trypan blue at end of experiment” value (U-87 MG glioma cell; after 9.5 and 19 μM CBD and ionomycin) was “not dead”, the “[Ca^2+]i” value (U-87 MG glioma cell; after 9.5 μM CBD) was 47.9 nM and the “[Ca^2+]i” value (U-87 MG glioma cell; after 19 μM CBD) was 913 nM. For the same molecule, the mitochondrial oxidative metabolism ([1]; CBD exposure to cells) was “reduced”, the antiproliferative effect ([1]; U87) was “antiproliferative effects” and the antiproliferative effect [2] was “antiproliferative effects”. The “translocation of U87 human glioma cells” value (U87 human glioma cells [3]) was “inhibited” and the “viability of U87 human glioma cells in mice” value (U87 human glioma cells [4]) was “prohibited”.

In the case of `Cc1ccc(N(CC(=O)O)CC(=O)O)c(OCCOc2cc(-c3c4cc(F)c(=O)cc-4oc4cc(O)c(F)cc34)ccc2N(CC(=O)O)CC(=O)O)c1` [Fluo-4], the Kd [5] is given as 350 nM.

In the case of `C[C@H](CCC(=O)O)C[C@H](C)C[C@H](C)C(=O)/C=C(\O)[C@H](C)C[C@H](C)C/C=C/[C@@H](C)[C@@H](O)[C@@H](C)[C@@H](O)C[C@@H]1CC[C@@](C)([C@H]2CC[C@@](C)([C@@H](C)O)O2)O1` [ionomycin, Ionomycin], the “fluorescence response after ionomycin (Fmax)” value (U-87 MG glioma cell; 10 μM ionomycin, at ~6000 s) is reported as “obvious fluorescence peak”.

For `C=CC(=C)CCC=C(C)C` [myrcene], the cell calcium response (U-87 MG glioma cell; 10 μM, data not shown) was “not detectable” and the “cell calcium response (FIG. 11)” value (U-87 MG glioma cell; 20 μM, alone) was “a little cell calcium response”.
